Assay results published in patent publication US4307194A, “Inhibitors, obtained from bacilli, for glycoside hydrolases” (Bayer Aktiengesellschaft, priority 1976, dated 1981).

Tests used:
[1] = target: T1, saccharase from swine small intestine mucosa (Sus scrofa, UniProt P56729); assay: Saccharase test (saccharase inhibitor units, SIU); type: biochemical; settings: solid product
T1 construct: sucrase subunit cut from the sucrase-isomaltase precursor
Experimental: A saccharase inhibitor unit (SIU) is defined as the amount of inhibitor which inhibits two saccharase units to the extent of 50%. A saccharase unit (SU) is the amount of enzyme which, under the test conditions indicated below, splits 1 μmol of sucrose into glucose and fructose in one minute. The μmols of glucose formed are determined quantitatively with the aid of the glucose oxidase reaction under conditions under which further splitting of sucrose by saccharase no longer takes place. In order to carry out the test, 1-20 μg of inhibitor, or 1-20 μl of the solution to be tested, are added to 0.05 ml of saccharase solution adjusted to a content of 0.12 SU and the mixture is made up to 0.1 ml with 0.1 M sodium maleate buffer of pH 6.0. Suitably, a solubilised saccharase from swine small intestine mucosa according to B. Borgstrom, A. Dahlquist, Acta Chem. Scand. […] The mixture is equilibrated at 35° C. for 10 minutes and 0.1 ml of a 0.05 M sucrose solution in 0.1 M sodium maleate buffer of pH 6.0, prewarmed to 35° C., is then added. The mixture is incubated at 35° C. for 20 minutes and the saccharase reaction is stopped by adding 1 ml of glucose oxidase reagent and the mixture is incubated for a further 30 minutes at 35° C. […] 1 ml of 50% strength H2 SO4 is then added and the mixture is measured at 545 nm against a corresponding blank value. […]

microbial α-glucosidases = settings: T. NIWA et al. Agr. Biol. Chem. 34, 966; cited from earlier work

T1 sequence (P56729 with tags, fused parts or gaps): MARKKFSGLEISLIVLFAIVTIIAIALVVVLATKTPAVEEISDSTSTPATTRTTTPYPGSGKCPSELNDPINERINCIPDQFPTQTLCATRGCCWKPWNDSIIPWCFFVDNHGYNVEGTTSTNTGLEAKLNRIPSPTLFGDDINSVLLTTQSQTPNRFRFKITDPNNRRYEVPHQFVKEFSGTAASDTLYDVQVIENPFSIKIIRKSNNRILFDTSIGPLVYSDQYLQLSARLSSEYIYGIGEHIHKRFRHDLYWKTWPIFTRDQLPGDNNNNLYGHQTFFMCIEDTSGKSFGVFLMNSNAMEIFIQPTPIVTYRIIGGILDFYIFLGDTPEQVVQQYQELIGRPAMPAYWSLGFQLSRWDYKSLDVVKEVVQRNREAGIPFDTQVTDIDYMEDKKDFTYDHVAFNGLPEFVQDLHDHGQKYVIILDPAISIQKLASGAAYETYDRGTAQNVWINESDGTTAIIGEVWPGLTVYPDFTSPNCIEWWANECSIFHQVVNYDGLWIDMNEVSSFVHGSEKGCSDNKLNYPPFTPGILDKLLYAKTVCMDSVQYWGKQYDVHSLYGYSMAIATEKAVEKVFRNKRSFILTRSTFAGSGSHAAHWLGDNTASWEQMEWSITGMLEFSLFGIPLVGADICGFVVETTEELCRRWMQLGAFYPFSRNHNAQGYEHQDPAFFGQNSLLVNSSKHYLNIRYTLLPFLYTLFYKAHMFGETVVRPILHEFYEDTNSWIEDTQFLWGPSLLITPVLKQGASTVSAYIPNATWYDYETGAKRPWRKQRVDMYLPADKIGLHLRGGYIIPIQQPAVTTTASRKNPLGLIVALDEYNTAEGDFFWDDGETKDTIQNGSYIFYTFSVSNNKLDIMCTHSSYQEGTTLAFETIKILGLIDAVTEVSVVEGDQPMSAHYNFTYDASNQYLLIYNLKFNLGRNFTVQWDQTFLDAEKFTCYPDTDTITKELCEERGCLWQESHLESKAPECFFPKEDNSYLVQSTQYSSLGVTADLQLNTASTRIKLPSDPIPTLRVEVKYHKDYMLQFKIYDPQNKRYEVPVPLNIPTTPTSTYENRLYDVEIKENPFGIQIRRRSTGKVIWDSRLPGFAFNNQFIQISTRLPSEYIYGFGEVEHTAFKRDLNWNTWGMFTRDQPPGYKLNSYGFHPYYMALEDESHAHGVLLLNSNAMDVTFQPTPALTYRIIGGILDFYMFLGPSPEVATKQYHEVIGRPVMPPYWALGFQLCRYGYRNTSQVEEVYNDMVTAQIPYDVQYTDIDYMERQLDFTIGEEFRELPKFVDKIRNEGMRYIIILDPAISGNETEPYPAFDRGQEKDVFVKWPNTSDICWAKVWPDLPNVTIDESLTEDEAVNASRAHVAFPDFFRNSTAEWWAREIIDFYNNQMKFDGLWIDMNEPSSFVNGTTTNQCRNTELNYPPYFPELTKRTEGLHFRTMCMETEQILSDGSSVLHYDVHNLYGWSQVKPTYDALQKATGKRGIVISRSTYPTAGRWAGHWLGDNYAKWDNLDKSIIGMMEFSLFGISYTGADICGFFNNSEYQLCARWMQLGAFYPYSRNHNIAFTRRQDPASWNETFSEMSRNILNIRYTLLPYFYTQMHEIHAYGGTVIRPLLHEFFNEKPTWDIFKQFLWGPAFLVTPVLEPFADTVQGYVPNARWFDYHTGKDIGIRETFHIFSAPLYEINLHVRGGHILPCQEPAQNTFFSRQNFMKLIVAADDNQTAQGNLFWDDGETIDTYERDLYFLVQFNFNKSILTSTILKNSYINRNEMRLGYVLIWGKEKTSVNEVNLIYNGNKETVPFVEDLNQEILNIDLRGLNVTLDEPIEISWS

specific saccharase-inhibitory activity [1]	Structure (SMILES)	inhibition of microbial α-glucosidases (microbial α-glucosidases)
540,000 SIU/g	OC[C@H]1NC[C@H](O)[C@@H](O)[C@@H]1O [Example 34, 1-desoxynojirimycin]	
	OC[C@H]1NC(O)[C@H](O)[C@@H](O)[C@@H]1O (some centres unmarked) [nojirimycin]	inhibits
